Data taken from ChEMBL document CHEMBL3603774, “Novel 5-functionalized-pyrazoles: Synthesis, characterization and pharmacological screening” (Bioorg Med Chem Lett, 2015).
≈ marks a conversion by molar mass, not a printed value.

Columns and labels:
[1] = tested on: Klebsiella pneumoniae; test: Antibacterial activity against Klebsiella pneumoniae MTCC 3384 at 50 ug/ml after 24 hrs by disc diffusion method; assay type: functional; conditions: MTCC 3384, 24 h, read-out: IZ
[2] = tested on: Escherichia coli; test: Antibacterial activity against Escherichia coli MTCC 724 at 50 ug/ml after 24 hrs by disc diffusion method; assay type: functional; conditions: MTCC 724, 24 h, read-out: IZ
[3] = tested on: Staphylococcus aureus; test: Antibacterial activity against Staphylococcus aureus MTCC 96 at 50 ug/ml after 24 hrs by disc diffusion method; assay type: functional; conditions: MTCC 96, 24 h, read-out: IZ
[4] = tested on: Klebsiella pneumoniae; test: Antibacterial activity against Klebsiella pneumoniae MTCC 3384 assessed as concentration required to completely destroy test microorganisms after 24 hrs; assay type: functional; conditions: MTCC 3384, 24 h
[5] = tested on: Staphylococcus aureus; test: Antibacterial activity against Staphylococcus aureus MTCC 96 at 100 ug/ml after 24 hrs by disc diffusion method; assay type: functional; conditions: MTCC 96, 24 h, read-out: IZ
[6] = tested on: Bacillus cereus; test: Antibacterial activity against Bacillus cereus MTCC 8372 assessed as concentration required to completely destroy test microorganisms after 24 hrs; assay type: functional; conditions: MTCC 8372, 24 h
[7] = tested on: Staphylococcus aureus; test: Antibacterial activity against Staphylococcus aureus MTCC 96 assessed as concentration required to completely destroy test microorganisms after 24 hrs; assay type: functional; conditions: MTCC 96, 24 h
[8] = tested on: Aspergillus flavus; test: Antifungal activity against Aspergillus flavus MTCC 873 after 48 hrs by microdilution method; assay type: functional
[9] = tested on: Aspergillus niger; test: Antifungal activity against Aspergillus niger MTCC 281 at 50 ug/ml after 24 hrs by disc diffusion method; assay type: functional; conditions: MTCC 281, 24 h, read-out: IZ
[10] = tested on: Escherichia coli; test: Antibacterial activity against Escherichia coli MTCC 724 after 24 hrs by microdilution method; assay type: functional; conditions: MTCC 724, 24 h
[11] = tested on: Aspergillus flavus; test: Antifungal activity against Aspergillus flavus MTCC 873 assessed as concentration required to completely destroy test microorganisms after 24 hrs; assay type: functional
[12] = biological target: T1, Alpha amylase (Homo sapiens, UniProt P0DUB6); test: Inhibition of alpha-amylase (unknown origin) using starch as substrate after 30 mins by spectrophotometer analysis
T1 sequence (P0DUB6 whole entry): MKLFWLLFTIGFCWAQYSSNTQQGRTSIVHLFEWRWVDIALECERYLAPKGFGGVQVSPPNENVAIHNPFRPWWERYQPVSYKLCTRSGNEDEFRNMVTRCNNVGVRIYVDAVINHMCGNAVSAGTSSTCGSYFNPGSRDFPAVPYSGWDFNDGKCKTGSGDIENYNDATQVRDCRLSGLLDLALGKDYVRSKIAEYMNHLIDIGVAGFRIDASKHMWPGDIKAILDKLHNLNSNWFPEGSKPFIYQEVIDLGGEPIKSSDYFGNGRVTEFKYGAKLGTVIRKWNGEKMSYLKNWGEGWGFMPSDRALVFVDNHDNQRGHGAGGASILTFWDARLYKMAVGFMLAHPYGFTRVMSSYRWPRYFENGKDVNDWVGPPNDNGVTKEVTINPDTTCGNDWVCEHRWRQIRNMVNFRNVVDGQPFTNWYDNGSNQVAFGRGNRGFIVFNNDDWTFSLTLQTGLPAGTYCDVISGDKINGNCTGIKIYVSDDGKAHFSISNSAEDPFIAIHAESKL

[13] = tested on: Bacillus cereus; test: Antibacterial activity against Bacillus cereus MTCC 8372 after 24 hrs by microdilution method; assay type: functional; conditions: MTCC 8372, 24 h
[14] = tested on: Aspergillus flavus; test: Antifungal activity against Aspergillus flavus MTCC 873 at 100 ug/ml after 24 hrs by disc diffusion method; assay type: functional; conditions: for zone of inhibition at 100 µg/mL: MTCC 873, 24 h, read-out: IZ
[15] = tested on: Aspergillus niger; test: Antifungal activity against Aspergillus niger MTCC 281 at 100 ug/ml after 24 hrs by disc diffusion method; assay type: functional; conditions: MTCC 281, 24 h, read-out: IZ
[16] = tested on: Aspergillus niger; test: Antifungal activity against Aspergillus niger MTCC 281 after 48 hrs by microdilution method; assay type: functional
[17] = tested on: Klebsiella pneumoniae; test: Antibacterial activity against Klebsiella pneumoniae MTCC 3384 at 100 ug/ml after 24 hrs by disc diffusion method; assay type: functional; conditions: MTCC 3384, 24 h, read-out: IZ
[18] = Inhibition of alpha-glucosidase (unknown origin) using p-nitrophenol glycoside as substrate after 30 mins by colorimetric analysis; parameters: species or system Homo sapiens
[19] = tested on: Escherichia coli; test: Antibacterial activity against Escherichia coli MTCC 724 at 100 ug/ml after 24 hrs by disc diffusion method; assay type: functional; conditions: MTCC 724, 24 h, read-out: IZ
[20] = tested on: Aspergillus flavus; test: Antifungal activity against Aspergillus flavus MTCC 873 at 50 ug/ml after 24 hrs by disc diffusion method; assay type: functional; conditions: for zone of inhibition at 50 µg/mL: MTCC 873, 24 h, read-out: IZ
[21] = tested on: Escherichia coli; test: Antibacterial activity against Escherichia coli MTCC 724 assessed as concentration required to completely destroy test microorganisms after 24 hrs; assay type: functional; conditions: MTCC 724, 24 h
[22] = tested on: Staphylococcus aureus; test: Antibacterial activity against Staphylococcus aureus MTCC 96 after 24 hrs by microdilution method; assay type: functional; conditions: MTCC 96, 24 h
[23] = tested on: Bacillus cereus; test: Antibacterial activity against Bacillus cereus MTCC 8372 at 100 ug/ml after 24 hrs by disc diffusion method; assay type: functional; conditions: MTCC 8372, 24 h, read-out: IZ
[24] = tested on: Klebsiella pneumoniae; test: Antibacterial activity against Klebsiella pneumoniae MTCC 3384 after 24 hrs by microdilution method; assay type: functional; conditions: MTCC 3384, 24 h
[25] = tested on: Aspergillus niger; test: Antifungal activity against Aspergillus niger MTCC 281 assessed as concentration required to completely destroy test microorganisms after 24 hrs; assay type: functional
[26] = tested on: Bacillus cereus; test: Antibacterial activity against Bacillus cereus MTCC 8372 at 50 ug/ml after 24 hrs by disc diffusion method; assay type: functional; conditions: MTCC 8372, 24 h, read-out: IZ

Compound | zone of inhibition at 50 µg/mL [1] | zone of inhibition at 50 µg/mL [2] | zone of inhibition at 50 µg/mL [3] | MBC [4] | zone of inhibition at 100 µg/mL [5] | MBC [6] | MBC [7] | MIC ([8]; MTCC 873, 48 h) | zone of inhibition at 50 µg/mL [9] | MIC [10] | MFC ([11]; MTCC 873, 24 h) | IC50 [12] | MIC [13] | zone of inhibition at 100 µg/mL [17] | zone of inhibition at 100 µg/mL [19] | MBC [21] | MIC [22] | zone of inhibition at 100 µg/mL [23] | MIC [24] | zone of inhibition at 50 µg/mL [26] | also measured
CCOC(=O)c1c(-c2ccccc2)nn(-c2ccccc2)c1Cn1cnc2cc(C)ccc21 | 9 mm | 8 mm | 6 mm | 240 µg/mL (≈ 550 µM) | 12 mm | 220 µg/mL (≈ 504 µM) | 205 µg/mL (≈ 470 µM) | 40 µg/mL (≈ 91.6 µM) | 12 mm | 40 µg/mL (≈ 91.6 µM) | 270 µg/mL (≈ 619 µM) | 45 µg/mL (≈ 103 µM) | 50 µg/mL (≈ 115 µM) | 11 mm | 12 mm | 205 µg/mL (≈ 470 µM) | 45 µg/mL (≈ 103 µM) | 11 mm | 45 µg/mL (≈ 103 µM) | 8 mm | zone of inhibition at 100 µg/mL [14]: 21 mm; zone of inhibition at 100 µg/mL [15]: 24 mm; MIC ([16]; MTCC 281, 48 h): 45 µg/mL (≈ 103 µM); IC50 [18]: 45 µg/mL (≈ 103 µM); zone of inhibition at 50 µg/mL [20]: 16 mm; MFC ([25]; MTCC 281, 24 h): 165 µg/mL (≈ 378 µM)
CCOC(=O)c1c(-c2ccccc2)nn(-c2ccccc2)c1Cn1cnc2ccccc21 | 6 mm | 8 mm | 6 mm | 220 µg/mL (≈ 521 µM) | 12 mm | 285 µg/mL (≈ 675 µM) | 290 µg/mL (≈ 686 µM) | 45 µg/mL (≈ 107 µM) | 25 mm | 55 µg/mL (≈ 130 µM) | 275 µg/mL (≈ 651 µM) | 35 µg/mL (≈ 82.8 µM) | 60 µg/mL (≈ 142 µM) | 10 mm | 10 mm | 270 µg/mL (≈ 639 µM) | 55 µg/mL (≈ 130 µM) | 12 mm | 40 µg/mL (≈ 94.7 µM) | 6 mm | zone of inhibition at 100 µg/mL [14]: 15 mm; zone of inhibition at 100 µg/mL [15]: 20 mm; MIC ([16]; MTCC 281, 48 h): 50 µg/mL (≈ 118 µM); IC50 [18]: 30 µg/mL (≈ 71 µM); zone of inhibition at 50 µg/mL [20]: 12 mm; MFC ([25]; MTCC 281, 24 h): 280 µg/mL (≈ 663 µM)
CCOC(=O)c1c(-c2ccccc2)nn(-c2ccccc2)c1Cn1c(Cl)nc2ccccc21 | 6 mm | 9 mm | 9 mm | 190 µg/mL (≈ 416 µM) | 11 mm | 220 µg/mL (≈ 481 µM) | 160 µg/mL (≈ 350 µM) | 30 µg/mL (≈ 65.7 µM) | 10 mm | 35 µg/mL (≈ 76.6 µM) | 230 µg/mL (≈ 503 µM) | 10 µg/mL (≈ 21.9 µM) | 35 µg/mL (≈ 76.6 µM) | 12 mm | 19 mm | 190 µg/mL (≈ 416 µM) | 30 µg/mL (≈ 65.7 µM) | 14 mm | 30 µg/mL (≈ 65.7 µM) | 6 mm | zone of inhibition at 100 µg/mL [14]: 9 mm; zone of inhibition at 100 µg/mL [15]: 10 mm; MIC ([16]; MTCC 281, 48 h): 25 µg/mL (≈ 54.7 µM); IC50 [18]: 20 µg/mL (≈ 43.8 µM); zone of inhibition at 50 µg/mL [20]: 8 mm; MFC ([25]; MTCC 281, 24 h): 215 µg/mL (≈ 471 µM)
CN(C)[C@@H]1C(O)=C(C(N)=O)C(=O)[C@@]2(O)C(O)=C3C(=O)c4c(O)cccc4[C@@](C)(O)[C@H]3C[C@@H]12 [TETRACYCLINE] | 12 mm | 18 mm | 10 mm | 120 µg/mL (≈ 270 µM) | 20 mm | 120 µg/mL (≈ 270 µM) | 120 µg/mL (≈ 270 µM) | – | – | 12 µg/mL (≈ 27 µM) | – | – | 4 µg/mL (≈ 9 µM) | 20 mm | 30 mm | 120 µg/mL (≈ 270 µM) | 10 µg/mL (≈ 22.5 µM) | 22 mm | 8 µg/mL (≈ 18 µM) | 10 mm | –
NYSTATIN | – | – | – | – | – | – | – | – | – | – | – | – | – | – | – | – | – | – | – | – | MIC [8]: 8 µg/mL; MFC [11]: 100 µg/mL; inhibition zone (IZ) [14]: 20 mm; MIC [16]: 10 µg/mL; inhibition zone (IZ) [20]: 16 mm; MFC [25]: 100 µg/mL
